2 compounds from patent US5817639A, “Purine 4'-thioarabinonucleosides” (Yamasa Corporation, priority 1995, dated 1998) can be followed below.

Converted amounts (≈) assume the structure as drawn.

Assay [1] concerns VZV (Oka strain). The assay is described as follows: Anti-Varicella Zoster Virus (VZV) activity (plaque formation inhibition in human fetal lung fibroblasts). The conditions noted are these: Human alphaherpesvirus 3, Fibroblast, read-out: ED50 VZV. In kind it is cell-based. The protocol:
(§1) 1. Human fibroblasts derived from fetal lungs were subjected to subculturing in Eagle MEM supplemented with 10% semi-fetal calf serum (Mitsubishi Chemical Corporation) at a 1:2-4 split every 4 days.
2. A suspension of cells obtained by splitting their parent cells (1:2) was seeded in a 12-well multi-plate (2 ml/well), followed by culturing for 4-5 days at 37° C. in a CO2 -incubator.
3. The culture liquid was discarded, and 750 μl of a 5% serum-added Eagle MEM containing 50-100 PFU of Oka strain of VZV was inoculated, and the virus was allowed to be adsorbed for 1 hour at 37° C.
4. Without removing the virus, 750 μl of Hanks' MEM containing the test compound was added, and the resultant mixture was incubated in a CO2 -incubator at 37° C. Generally, a test compound is diluted in serial 1/2 log10, and the maximal concentration is 10 μg/ml.
5. After culturing for 4-5 days, the culture liquid was discarded, and the cells were stained with a 0.5% crystal violet solution. Under a stereoscopic light microscope, the number of plaques in each well was counted. Using the equation used in (1) above, the plaque formation inhibitory ratio was obtained.
6. The plaque formation inhibitory ratio was plotted on a graph with respect to the concentration of the test compound (logarithmic representation).

The test system of assay [2] is HCMV (AD-169 strain). The assay is described as follows: Anti-Human Cytomegalovirus activity (plaque formation inhibition in human fetal lung fibroblasts). The assay is classed as cell-based. The conditions noted are these: Human betaherpesvirus 5, AD169, Fibroblast, 50% inhibition of plaque formation, human fibroblasts derived from fetal lungs, 4 days plus further 4-5 days, read-out: ED50 HCMV. On the procedure: as §1
2. A suspension of cells obtained by splitting their parent cells (1:2) was seeded in a 12-well multi-plate (2 ml/well), followed by culturing for 4 days at 37° C. in a CO2 -incubator.
3. The culture liquid was discarded, and 750 μl of a 5% serum-added Eagle MEM containing 50-100 PFU of AD-169 strain of HCMV was inoculated, and the virus was allowed to be adsorbed for 1 hour at 37° C.
4. Without removing the virus, 750 μl of Hanks' MEM containing the test compound was added, and the resultant mixture was incubated in a CO2 -incubator at 37° C. for 4 days. Generally, a test compound is diluted in serial 1/2 log10, and the maximal concentration is 10 μg/ml.
5. The medium was changed to a fresh 2.5% serum-added Eagle MEM containing 0.8% methylcellulose and the test compound having the same concentration, followed by culturing further for 4-5 days.
6. The culture liquid was discarded, and the cells were stained with May-Gruenwald's-Giemsa (×10). Under a stereoscopic light microscope, the number of plaques in each well was counted. Using the equation used in (1) above, the plaque formation inhibitory ratio was obtained.
7. […]

The subject of assay [3] is HSV-2 (MS strain). The assay is described as follows: Anti-HSV-2 activity (plaque formation inhibition in human fetal lung fibroblasts). The conditions noted are these: Human alphaherpesvirus 2, Fibroblast, 50% inhibition of plaque formation, human fibroblasts derived from fetal lungs, 2-3 days at 37° C., read-out: ED50 HSV-2. In kind it is cell-based, herpes simplex virus type 2. On the procedure: (§2) 1. Human fibroblasts derived from fetal lungs were subjected to subculturing in Eagle MEM supplemented with 10% semi-fetal calf serum (Mitsubishi Chemical Corporation) at a 1:2-4 split every 4 days. 2. A suspension of cells obtained by splitting their parent cells (1:2) was seeded in a 12-well multi-plate (2 ml/well), followed by culturing for 4-5 days at 37° C. in a CO2 -incubator. 3. The culture liquid was discarded, and Hanks' MEM (250 μl) containing 50-150 PFU of VR-3 strain of HSV-1 or MS strain of HSV-2 was inoculated, and the virus was allowed to be adsorbed for 30 minutes at 37° C. Thereafter, the viral liquid was discarded. 4. A 2.5% serum-added Eagle MEM containing a test compound and 0.8% methylcellulose was added and the resultant mixture was incubated in a CO2 -incubator for 2-3 days at 37° C. Generally, a test compound is diluted in serial 1/2 log10, and the maximal concentration is 10 μg/ml. 5. The culture liquid was discarded, and the cells were stained with a 0.5% crystal violet solution. Under a stereoscopic light microscope, the number of plaques in each well was counted. Using the equation below, the plaque formation inhibitory ratio (percent inhibition) was obtained. […]

For assay [4], the system named is HSV-1 (VR-3 strain). The assay is described as follows: Anti-HSV-1 activity (plaque formation inhibition in human fetal lung fibroblasts). The conditions noted are these: Human alphaherpesvirus 1, Fibroblast, 50% inhibition of plaque formation, human fibroblasts derived from fetal lungs, 2-3 days at 37° C., read-out: ED50 HSV-1. In kind it is cell-based, herpes simplex virus type 1. On the procedure:
as §2

As to `Nc1nc(N)c2ncn([C@@H]3S[C@H](CO)[C@@H](O)[C@@H]3O)c2n1` [Ia-β, 9-(4-thio-β-D-arabinofuranosyl)-2,6-diaminopurine], the EC50 in assay [1] turned out to be 0.11 µg/mL (≈ 0.369 µM); in assay [2], 0.022 µg/mL; in assay [3], 0.4 µg/mL (≈ 1.34 µM); in assay [4], 0.52 µg/mL (≈ 1.74 µM).

Take `Nc1nc2c(ncn2[C@@H]2S[C@H](CO)[C@@H](O)[C@@H]2O)c(=O)[nH]1` [Ib-β, 9-(4-thio-δ-D-arabinofuranosyl)guanine]: the EC50 in assay [1] is 0.11 µg/mL (≈ 0.368 µM); in assay [2], 0.011 µg/mL; in assay [3], 0.59 µg/mL (≈ 1.97 µM); in assay [4] it was 0.49 µg/mL (≈ 1.64 µM).
